According to patent US8110573B2, “Pyrazole compounds that modulate the activity of CDK, GSK and aurora kinases” (Astex Therapeutics Limited, priority 2004, dated 2012):
Structures can show the parent of a compound that is named as a salt.

Tests used:
physchem = conditions: water, thermodynamic from solid
[1] = Salt stability at 40° C. 75% RH followed by XRPD; assay type: physicochemical; conditions: 40° C. and 75% RH over the period of 1-2 month
Procedure: Approximately 15 mg of samples for the stability study were gently ground by marble mortar and transferred to a Petri dish in a thin layer. Samples were then placed in sealed containers containing saturated NaCl solution with an excess of undissolved NaCl. […] Samples were analysed by X-ray powder diffraction (XRPD) in regular intervals. Samples for XRPD data collection were loaded into crystallographic capillary (from Hampton Research, made of Quartz, diameter=0.4 mm). […] 2D Images were collected while spinning φ axis with a detector to crystal distance of 250 mm. Data collection was controlled by CrystalClear software and 2D images were converted to 1D plot (2θ vs. Intensity) by Datasqueeze (intensity averaged over the azimuthal angle 0<χ<360° for 2θ range 3-30° in 0.01° steps).

[2] = Gravimetric vapour sorption (GVS); assay type: physicochemical; conditions: 0-90% RH cycle, 25° C.
Procedure: The sample size was ca. 10-25 mg. […] The sample was loaded and unloaded at room humidity and temperature (ca. 40% RH, 25° C.) and analysed afterwards by XRPD (using a Bruker AXS C2 GADDS system).

HCT-116 cell line = test: Anti-proliferative activity (Alamar Blue assay); assay type: cell-based, human
Procedure: The anti-proliferative activities of compounds of the invention can be determined by measuring the ability of the compounds to inhibition of cell growth in a number of cell lines. Inhibition of cell growth is measured using the Alamar Blue assay (Nociari, M. M, Shalev, A., Benias, P., Russo, C. Journal of Immunological Methods 1998, 213, 157-167). The method is based on the ability of viable cells to reduce resazurin to its fluorescent product resorufin. For each proliferation assay cells are plated onto 96 well plates and allowed to recover for 16 hours prior to the addition of inhibitor compounds for a further 72 hours. At the end of the incubation period 10% (v/v) Alamar Blue is added and incubated for a further 6 hours prior to determination of fluorescent product at […]. In the case of the non-proliferating cell assay cells are maintained at confluence for 96 hour prior to the addition of inhibitor compounds for a further 72 hours. The number of viable cells is determined by Alamar Blue assay as before. In addition, any morphological changes are recorded. Cell lines can be obtained from the ECACC (European Collection of cell Cultures).
In particular, compounds of the invention were tested against the HCT-116 cell line (ECACC Reference: 91091005) derived from human colon carcinoma.

CDK1/CyclinB = molecular target: T1, CDK1/CyclinB (Homo sapiens, UniProt P06493); test: Activated CDK1/CyclinB kinase inhibitory activity assay; assay type: biochemical
T1 construct: purchased Upstate Discovery
Procedure: The reaction is allowed to proceed for 2 to 4 hours before being stopped with an excess of ortho-phosphoric acid (5 μl at 2%). γ^33P-ATP which remains unincorporated into the histone H1 is separated from phosphorylated histone H1 on a Millipore MAPH filter plate. The wells of the MAPH plate are wetted with 0.5% orthophosphoric acid, and then the results of the reaction are filtered with a Millipore vacuum filtration unit through the wells. Following filtration, the residue is washed twice with 200 μl of 0.5% orthophosphoric acid. Once the filters have dried, 20 μl of Microscint 20 scintillant is added, and then counted on a Packard Topcount for 30 seconds.
CDK1/CyclinB assay is identical to the CDK2/CyclinA above except that CDK1/CyclinB (Upstate Discovery) is used and the enzyme is diluted to 6.25 nM.

T1 sequence (P06493 whole entry): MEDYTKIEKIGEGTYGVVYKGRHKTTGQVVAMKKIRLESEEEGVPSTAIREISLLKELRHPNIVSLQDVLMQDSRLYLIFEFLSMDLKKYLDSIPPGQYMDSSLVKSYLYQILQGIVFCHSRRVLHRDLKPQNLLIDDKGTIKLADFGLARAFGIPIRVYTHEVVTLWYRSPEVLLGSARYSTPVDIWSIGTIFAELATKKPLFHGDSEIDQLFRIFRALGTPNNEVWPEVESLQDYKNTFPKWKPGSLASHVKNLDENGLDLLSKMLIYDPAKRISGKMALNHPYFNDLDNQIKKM
T1 sequence (P14635 whole entry partner): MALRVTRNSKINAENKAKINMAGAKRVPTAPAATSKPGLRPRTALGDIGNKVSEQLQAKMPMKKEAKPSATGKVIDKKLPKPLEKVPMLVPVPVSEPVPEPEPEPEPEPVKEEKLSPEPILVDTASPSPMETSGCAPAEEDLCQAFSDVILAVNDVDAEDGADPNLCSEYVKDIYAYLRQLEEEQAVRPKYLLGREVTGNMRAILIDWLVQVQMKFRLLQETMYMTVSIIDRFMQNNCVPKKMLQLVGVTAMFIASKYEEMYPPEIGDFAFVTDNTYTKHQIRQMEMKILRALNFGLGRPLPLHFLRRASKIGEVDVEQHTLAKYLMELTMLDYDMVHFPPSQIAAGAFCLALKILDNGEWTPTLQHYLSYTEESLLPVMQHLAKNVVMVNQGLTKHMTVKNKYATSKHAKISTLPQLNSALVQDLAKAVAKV

solubility at 16 h (physchem) [mg/mL]	change of XRPD pattern on storage [1]	IC50 (HCT-116 cell line; Homo sapiens, HCT-116, 72 hours compound, Alamar Blue, read-out: IC50, inhibition of cell growth, HCT-116 cell line) [µM]	IC50 (CDK1/CyclinB) [µM]	SMILES	hygroscopic behaviour (GVS isotherm) [2]	minimum concentration at which polyploidy or multinucleation is observed (HCT-116 cell line; HCT-116 cell line)
< 25	–	–	–	O=C(Nc1c[nH]nc1-c1nc2cc(CN3CCOCC3)ccc2[nH]1)NC1CC1 [Hydrochloride, 1-cyclopropyl-3-[3-(5-morpholin-4-ylmethyl-1H-benzoimidazol-2-yl)-1H-pyrazol-4-yl]-urea]	–	–
–	do not change	–	–	C[C@H](O)C(=O)O.O=C(Nc1c[nH]nc1-c1nc2cc(CN3CCOCC3)ccc2[nH]1)NC1CC1 [L-lactate salt, 1-cyclopropyl-3-[3-(5-morpholin-4-ylmethyl-1H-benzoimidazol-2-yl)-1H-pyrazol-4-yl]-urea, L-lactate salt]	does not display hygroscopic behaviour and does not form a hydrate	–
–	do not change	< 1	< 10	O=C(Nc1c[nH]nc1-c1nc2cc(CN3CCOCC3)ccc2[nH]1)NC1CC1 [Example 24, 1-cyclopropyl-3-[3-(5-morpholin-4-ylmethyl-1H-benzoimidazol-2-yl)-1H-pyrazol-4-yl]-urea]	–	less than 100 nM
